The source of these data is ChEMBL document CHEMBL4028802, “DILIrank: the largest reference drug list ranked by the risk for developing drug-induced liver injury in humans” (Drug Discov Today, 2016).

For data set [1], the species on record is Homo sapiens. As to the kind of experiment: Liver toxicity in human assessed as induction of drug-induced liver injury by measuring severity class index.
The species entered for data set [2] is Homo sapiens. As to the kind of experiment: Liver toxicity in human assessed as induction of drug-induced liver injury by measuring verified drug-induced liver injury concern status.

The structures appear in SMILES notation. Starred links: 1 amine or outer side, 2 acyl side, 3 side chain; linkers in the order of their positions; H or OH if unused. Positions of bridges follow the written chain, without caps; N, C: chain ends. Non-standard residues stand in square brackets, D forms with d. Residues, ends and D or L forms follow the SMILES beside them. *: point of attachment. hTyr(3S-OH,4S-OH,3'-OSO3H) = N[C@H](C(=O)O)[C@H](O)[C@@H](O)c1ccc(O)c(OS(=O)(=O)O)c1; Orn(4R-OH,5R-OH) = O=C([C@H](C[C@@H](O)[C@@H](O)N[*:3])N[*:1])[*:2]; Pro(3S-OH,4S-Me) = C[C@H]1CN[C@H](C(=O)O)[C@H]1O; X1 = CCCCCOc1ccc(-c2cc(-c3ccc(C(=O)*)cc3)no2)cc1; Gln(3R-OH) = NC(=O)C[C@@H](O)[C@H](N)C(=O)O; Hyp = O=C(O)[C@@H]1C[C@@H](O)CN1
Wherever DILI severity class is given: key of the grades not given here.

As for `CN(C)C(=N)N=C(N)N` [METFORMIN], in data set [1], the DILI_severity_class stood at 0. In addition, in data set [2], the DILI_Concern result is listed as “Less-Dili-Concern”.

Regarding `CCC(=O)C(CC(C)N(C)C)(c1ccccc1)c1ccccc1` (centres undefined) [METHADONE], the DILI_severity_class in data set [1] came out at 3. Moreover, the DILI_Concern result in data set [2] is reported as “Ambiguous-Dili-Concern”.

`CN[C@@H](C)Cc1ccccc1` [METHAMPHETAMINE]: in data set [1], the DILI_severity_class worked out at 0. Moreover, the DILI_Concern result in data set [2] is given as “No-Dili-Concern”.

As for `CC(=O)/N=c1/sc(S(N)(=O)=O)nn1C` [METHAZOLAMIDE], in data set [1], the DILI_severity_class turned out to be 7. For the same molecule, the DILI_Concern result in data set [2] was “Less-Dili-Concern”.

`C1N2CN3CN1CN(C2)C3.O=C(O)CNC(=O)c1ccccc1` [METHENAMINE HIPPURATE]: the DILI_severity_class in data set [1] came out at 3. Moreover, in data set [2], the DILI_Concern entry is listed as “Ambiguous-Dili-Concern”.

For the molecule `CSCC[C@H](N)C(=O)O` [METHIONINE], in data set [1], the DILI_severity_class is recorded as 0. In data set [2], the DILI_Concern entry is recorded as “No-Dili-Concern”.

In the case of `COc1ccccc1OCC(O)COC(N)=O` (centres undefined) [METHOCARBAMOL], the DILI_severity_class in data set [1] is recorded as 5. Further, in data set [2], the DILI_Concern entry is reported as “Ambiguous-Dili-Concern”.

Regarding `C=CCC1(C(C)C#CCC)C(=O)N=C(O)N(C)C1=O` (centres undefined) [METHOHEXITAL], the DILI_severity_class in data set [1] turned out to be 3. For the same molecule, the DILI_Concern result in data set [2] is on record as “Ambiguous-Dili-Concern”.

Turning to `CN(Cc1cnc2nc(N)nc(N)c2n1)c1ccc(C(=O)N[C@@H](CCC(=O)O)C(=O)O)cc1` [METHOTREXATE], the DILI_severity_class in data set [1] worked out at 3. Further, in data set [2], the DILI_Concern entry is “Most-Dili-Concern”.

Turning to `COc1c2occc2cc2ccc(=O)oc12` [METHOXSALEN], the DILI_severity_class in data set [1] turned out to be 3. Besides, the DILI_Concern result in data set [2] is on record as “Less-Dili-Concern”.

As for `C[N+]1(C)[C@@H]2C[C@@H](OC(=O)[C@H](CO)c3ccccc3)C[C@H]1[C@@H]1O[C@@H]12.[Br-]` [METHSCOPOLAMINE BROMIDE], in data set [1], the DILI_severity_class came to 0. Also, the DILI_Concern result in data set [2] is listed as “No-Dili-Concern”.

For `CN1C(=O)CC(C)(c2ccccc2)C1=O` (centres undefined) [METHSUXIMIDE], the DILI_severity_class in data set [1] amounted to 0. Also, in data set [2], the DILI_Concern result was “No-Dili-Concern”.

On to `CN1C(CCl)Nc2cc(Cl)c(S(N)(=O)=O)cc2S1(=O)=O` (centres undefined) [METHYCLOTHIAZIDE], for which, in data set [1], the DILI_severity_class is recorded as 2. Also, in data set [2], the DILI_Concern result is “Ambiguous-Dili-Concern”.

Regarding `C[C@](N)(Cc1ccc(O)c(O)c1)C(=O)O` [METHYLDOPA], the DILI_severity_class in data set [1] amounted to 8. The DILI_Concern result in data set [2] is “Most-Dili-Concern”.

On to `CC[C@@H](CO)NC(=O)[C@@H]1C=C2c3cccc4[nH]cc(c34)C[C@H]2N(C)C1` [METHYLERGONOVINE], for which the DILI_severity_class in data set [1] is given as 0. Also, in data set [2], the DILI_Concern result was “No-Dili-Concern”.

As for `C[N+]1(CC2CC2)CC[C@]23c4c5ccc(O)c4O[C@H]2C(=O)CC[C@@]3(O)[C@H]1C5.[Br-]` (some centres undefined) [METHYLNALTREXONE BROMIDE], the DILI_severity_class in data set [1] came to 0. In addition, in data set [2], the DILI_Concern entry is “No-Dili-Concern”.

For the molecule `COC(=O)C(c1ccccc1)C1CCCCN1` (centres undefined) [METHYLPHENIDATE], the DILI_severity_class in data set [1] is 3. In data set [2], the DILI_Concern result is given as “Less-Dili-Concern”.

As to `C[C@H]1C[C@@H]2[C@H]([C@@H](O)C[C@@]3(C)[C@H]2CC[C@]3(O)C(=O)CO)[C@@]2(C)C=CC(=O)C=C12` [METHYLPREDNISOLONE], the DILI_severity_class in data set [1] was determined as 3. The DILI_Concern result in data set [2] was “Less-Dili-Concern”.

On to `C[C@]12CCC(=O)C=C1CC[C@@H]1[C@@H]2CC[C@@]2(C)[C@H]1CC[C@]2(C)O` [METHYLTESTOSTERONE], for which the DILI_severity_class in data set [1] came to 2. Besides, the DILI_Concern entry in data set [2] is listed as “Less-Dili-Concern”.

For the molecule `CC[C@@H](CO)NC(=O)[C@@H]1C=C2c3cccc4c3c(cn4C)C[C@H]2N(C)C1` [METHYSERGIDE], in data set [1], the DILI_severity_class stood at 0. Also, in data set [2], the DILI_Concern entry was “No-Dili-Concern”.

For `CCN(CC)CCNC(=O)c1cc(Cl)c(N)cc1OC` [METOCLOPRAMIDE], in data set [1], the DILI_severity_class is 5. Also, the DILI_Concern result in data set [2] is recorded as “Less-Dili-Concern”.

With `Cc1ccccc1N1C(=O)c2cc(S(N)(=O)=O)c(Cl)cc2NC1C` (centres undefined) [METOLAZONE], in data set [1], the DILI_severity_class turned out to be 3. Also, the DILI_Concern result in data set [2] was “Ambiguous-Dili-Concern”.

Regarding `COCCc1ccc(OCC(O)CNC(C)C)cc1.COCCc1ccc(OCC(O)CNC(C)C)cc1.O=C(O)CCC(=O)O` (centres undefined) [METOPROLOL SUCCINATE], in data set [1], the DILI_severity_class is on record as 3. Further, in data set [2], the DILI_Concern result is reported as “Ambiguous-Dili-Concern”.

On to `COCCc1ccc(OCC(O)CNC(C)C)cc1` (centres undefined) [METOPROLOL], for which the DILI_severity_class in data set [1] came to 5. In data set [2], the DILI_Concern result is given as “Less-Dili-Concern”.

Take `Cc1ncc([N+](=O)[O-])n1CCO` [METRONIDAZOLE]: the DILI_severity_class in data set [1] is given as 3. Besides, in data set [2], the DILI_Concern result is “Less-Dili-Concern”.

As to `CC(C)(C(=O)c1cccnc1)c1cccnc1` [METYRAPONE], the DILI_severity_class in data set [1] is on record as 0. In addition, the DILI_Concern result in data set [2] is given as “No-Dili-Concern”.

As to `C[C@](N)(Cc1ccc(O)cc1)C(=O)O` [METYROSINE], the DILI_severity_class in data set [1] is recorded as 0. Besides, the DILI_Concern result in data set [2] is “No-Dili-Concern”.

In the case of `Cc1cccc(C)c1OCC(C)N` (centres undefined) [MEXILETINE], the DILI_severity_class in data set [1] was determined as 3. The DILI_Concern result in data set [2] is given as “Most-Dili-Concern”.

Take `CCCCCOc1ccc(-c2cc(-c3ccc(C(=O)N[C@H]4C[C@@H](O)[C@@H](O)NC(=O)[C@@H]5[C@@H](O)[C@@H](C)CN5C(=O)[C@H]([C@H](O)CC(N)=O)NC(=O)[C@H]([C@H](O)[C@@H](O)c5ccc(O)c(OS(=O)(=O)O)c5)NC(=O)[C@@H]5C[C@@H](O)CN5C(=O)[C@H]([C@@H](C)O)NC4=O)cc3)no2)cc1` [MICAFUNGIN] (X1-[Orn(4R-OH,5R-OH)]T[Hyp][hTyr(3S-OH,4S-OH,3'-OSO3H)][Gln(3R-OH)][Pro(3S-OH,4S-Me)]; lactam 1-C): in data set [1], the DILI_severity_class is 7. In addition, the DILI_Concern result in data set [2] is given as “Most-Dili-Concern”.

For `Cc1ncc2n1-c1ccc(Cl)cc1C(c1ccccc1F)=NC2` [MIDAZOLAM], the DILI_severity_class in data set [1] is recorded as 0. In addition, the DILI_Concern result in data set [2] is “No-Dili-Concern”.

Take `COc1ccc(OC)c(C(O)CNC(=O)CN)c1` (centres undefined) [MIDODRINE]: in data set [1], the DILI_severity_class was found to be 0. The DILI_Concern entry in data set [2] is recorded as “No-Dili-Concern”.

On to `CC#C[C@]1(O)CC[C@H]2[C@@H]3CCC4=CC(=O)CCC4=C3[C@@H](c3ccc(N(C)C)cc3)C[C@@]21C` [MIFEPRISTONE], for which the DILI_severity_class in data set [1] came to 0. Also, the DILI_Concern entry in data set [2] was “No-Dili-Concern”.

Regarding `OCCN1C[C@H](O)[C@@H](O)[C@H](O)[C@H]1CO` [MIGLITOL], the DILI_severity_class in data set [1] is given as 0. Further, in data set [2], the DILI_Concern result is recorded as “No-Dili-Concern”.

Regarding `Cc1[nH]c(=O)c(C#N)cc1-c1ccncc1` [MILRINONE], the DILI_severity_class in data set [1] came to 3. Besides, the DILI_Concern result in data set [2] is on record as “Ambiguous-Dili-Concern”.

In the case of `CN(C)c1ccc(O)c2c1C[C@H]1C[C@H]3[C@H](N(C)C)C(O)=C(C(N)=O)C(=O)[C@@]3(O)C(O)=C1C2=O` [MINOCYCLINE], the DILI_severity_class in data set [1] stood at 8. For the same molecule, the DILI_Concern result in data set [2] is listed as “Most-Dili-Concern”.

`Nc1cc(N2CCCCC2)nc(N)[n+]1[O-]` [MINOXIDIL]: the DILI_severity_class in data set [1] amounted to 0. For the same molecule, in data set [2], the DILI_Concern entry is “No-Dili-Concern”.

Take `CN1CCN2c3ncccc3Cc3ccccc3C2C1` (centres undefined) [MIRTAZAPINE]: the DILI_severity_class in data set [1] is 3. The DILI_Concern result in data set [2] is recorded as “Less-Dili-Concern”.
